Entries after “also recorded” stand apart in the source; their conditions may differ. Like-named read-outs stand apart in the source and are kept apart here.
How the values were obtained:
[1] = tested on: ARPE-19 cells; experiment: MTT cell viability assay on ARPE-19 cells; details: for MTT IC50 (%): ARPE-19 cells, summary Table 3
Text: Cell viability and cell morphology were examined to evaluate the toxicity of excipients on retinal pigment epithelial cells. The human retina cell line used in these experiments is the ARPE-19 cell line (human adult-derived retinal pigmented epithelial cells). […] They form tight-junctions with transepithelial resistance of monolayers (Dunn K C et al., supra). From a molecular standpoint, it appears that ARPE-19 express a huge pattern of genes similar to those expressed by human RPE from fresh explant which could account for their physiological function (Klimanskaya I. et al., “Derivation and comparative assessment of retinal pigment epithelium from human embryonic stem cells using transcriptomics”, Cloning and Stem Cells, 2004, 6(3):217-45).
ARPE-19 cells are widely used as a retinal model that resemble physiological properties of RPE cells. Similar methods of culturing ARPE-19 cells and cytotoxicity assays can be found in Yeung et al., “Cytotoxicity of triamcinolone on cultured human retinal pigment epithelial cells: comparison with dexamethasone and hydrocortisone”, Jpn J. Ophthalmol, 2004; 48:236-242. Cell viability and cell morphology were examined using conventional colormetric and visual methods. Viability and morphology measurements were obtained at 24 hours, 48 hours, and 72 hours after exposure to an excipient composition.
To assess cell viability, mitochondrial metabolism was quantified through conventional colorometric assays (i.e., the MTT assay). This calorimetric assay utilizes 3-(4,5-dimethylthiazol-2-yl)-2,5-diphenyltetrazolium bromide (MTT) and correlates mitochondrial metabolism and cell viability through measurement of dehydrogenase activity which converts a substrate into crystal. More specifically, the assay measures the activity of living cells through mitochondrial dehydrogenases. When dissolved in culture cell medium, MTT solution appears dark orange. Mitochondrial dehydrogenases of viable cells degrade MTT by cleaving the tetrazolium ring yielding to formation of a purple formazan crystal, which is insoluble in water. Crystals are subsequently dissolved in isopropanol solution. A resulting purple solution is spectrophotometrically measured. Cell viability is relative to amount of formazan and calculated as a percentage of remaining treated compared to non-treated cells.
Results from the MTT assay were expressed as a percentage of cell viability calculated using the following equation: % cell viability=ODtest/ODcontrol×100.
For each experiment, one concentration was performed in triplicate. Each point was spectrophotometrically read twice. Average of readings was calculated, then average from these 3 values was determined.
After 3 experiments were independently completed under the same conditions, a graph was plotted with cell viability expressed as a function of concentration (dose response) and for various incubation period (time course). The IC50 was then estimated based on the graphed data.
More specifically, cell density in 24-multiwell plates was observed on the day of the experiment to check if confluence of the cells was reached. Aliquots of MTT concentrated solutions were removed from a freezer at −20° C. and thawed at room temperature. Cell medium was warmed at 37° C. before use. Appropriated tubes for diluting compounds were prepared. Higher concentrations of each excipient agent was prepared. Serial dilution was then performed in cell medium (DMEM:F12+10% FBS).
Cell culture medium in the 24-well plate was removed using vacuum-pump. Cells were then stimulated with 0.5 ml final volume for each concentration of one given excipient agent. Distribution of the excipient-containing solution was performed using automated pipet-aid in sterile environment (under PSM) or not depending on time of compounds and duration of incubation.
After stimulation, cells were replaced in a CO2 incubator for the required time of exposure.

[2] = Osmolarity of excipient-containing incubating solutions; type: physicochemical
Experimental: Osmolarity was measured using osmometer type 13/13DR from Roebling (Berlin, GR).
(§1) For each concentration of tested compound, pH and osmolarity parameters were measured.

[3] = tested on: ARPE-19 cells; type: cell-based
Experimental: Cell morphology was visualized using light microscopy. Cell morphology observation using light microscopy permits determination of (i) cell number and density and (ii) whether or not cells in contact with an excipient agent display modified phenotype compared to a non-treated population of cells.
Cell morphology was analyzed in parallel by semi-quantitative scoring ranging from 5 to 1, from basal to lethal phenotype respectively, as shown in FIG. 23.
More specifically, cells were removed from an incubator for examination. Morphological shape of cells was visualized using a light microscope and CCD camera. Every 3 wells of a given concentration was observed through image analysis software. Then, a representative photograph describing the average appearance of cells was saved. The supernatant was either, kept for further predefined experiments to perform, or removed using vacuum-pump.
Resulting semi-quantitative scoring is represented as a function of time course and dose response. Score 5 : wild type phenotype of non-treated cells, 100% confluent adherent cells. This phenotype very much vary following post-seeding time. For example, at confluence ARPE-19 cells at 1 day appear well defined with visible outer membrane and dark grey cytoplasm. After 3 days of confluence, limits between cells become less visible and cells adopt a more hexagonal shape and constitute an epithelium-like uniform dense structure. Score 4: density <100%. Cell shape has changed, some spaces are present between cells, few cells possibly detached. Score 3: 80% <Cell density <40%. Spaces are sometimes present among cells, areas appears confluent while in others, cells detached. General cell shape starts showing non negligible alterations. Score 2: Cell density <50%. Cells adopt exclusively stressed appearance, presence of mass dead floating cells. Score 1: Cell density <10%. Presence of almost exclusively dead cells.
Based on quotation, each condition of the applied compound was given a score which allow to a morphology evolution profile to be prepared, ie. cell morphology as a function of compound concentration and time of exposure. […]

[4] = pH of excipient-containing incubating solutions; type: physicochemical
Experimental: as §1

## OCc1ccccc1 [Benzyl alcohol, benzyl alcohol]
[1]
  MTT IC50 (%): 0.07%
[1]; human, 72 h, 0.05 %
  Cell viability, experiments 1, 2, 3: 50.8%
[2]; 0.05% in culture medium
  Osmolarity of excipient dilution: 293 mOsm
[2]; 0.1% in culture medium
  Osmolarity of excipient dilution: 307 mOsm
[2]; 0.5% in culture medium
  Osmolarity of excipient dilution: 347 mOsm
[2]; 1% in culture medium
  Osmolarity of excipient dilution: 398 mOsm
[2]; 2% in culture medium
  Osmolarity of excipient dilution: 493 mOsm
[2]; […] in culture medium
  Osmolarity of excipient dilution: 444 mOsm
[3]
  Living cells (observation): no living cells survived
[3]; ARPE-19, estimated from morphology data
  IC50 based on cell morphology: about 0.07%
[3]; human
  Morphology limit concentration (%): 0.07%
[3]; human, 24 h, 0.05 %
  Cell morphology score, Mean: 3.3
[3]; human, 24 h, 0.1 %
  Cell morphology score, Mean: 3.0
[3]; human, 24 h, 0.5 %
  Cell morphology score, Mean: 1.0
[3]; human, 24 h, 1 %
  Cell morphology score, Mean: 1.0
[3]; human, 24 h, 2 %
  Cell morphology score, Mean: 1.0
[3]; human, 24 h, […]
  Cell morphology score, Mean: 1.0
[3]; human, 48 h, 0.05 %
  Cell morphology score, Mean: 3.7
[3]; human, 48 h, 0.1 %
  Cell morphology score, Mean: 3.0
[3]; human, 48 h, 0.5 %
  Cell morphology score, Mean: 1.0
[3]; human, 48 h, 1 %
  Cell morphology score, Mean: 1.0
[3]; human, 48 h, 2 %
  Cell morphology score, Mean: 1.0
[3]; human, 48 h, […]
  Cell morphology score, Mean: 1.0
[3]; human, 72 h, 0.05 %
  Cell morphology score, Mean: 3.3
[3]; human, 72 h, 0.1 %
  Cell morphology score, Mean: 3.0
[3]; human, 72 h, 0.5 %
  Cell morphology score, Mean: 1.0
[3]; human, 72 h, 1 %
  Cell morphology score, Mean: 1.0
[3]; human, 72 h, 2 %
  Cell morphology score, Mean: 1.0
[3]; human, 72 h, […]
  Cell morphology score, Mean: 1.0
[4]; 0.05% in culture medium
  pH of excipient dilution: 8
[4]; 0.1% in culture medium
  pH of excipient dilution: 8.1
[4]; 0.5% in culture medium
  pH of excipient dilution: 8
[4]; 1% in culture medium
  pH of excipient dilution: 7.9
[4]; 2% in culture medium
  pH of excipient dilution: 8
[4]; […] in culture medium
  pH of excipient dilution: 7.9

## hydroxypropyl beta-cyclodextrin [Kleptose®]
[1]
  Decrease of cell viability: about 40%
  MTT IC50 (%): 2.2-2.5%
[1]; 0.1% (w/v), 24, 48 and 72 hour time points
  Reduction of cell survival: 20-30%
[1]; 1% (w/v)
  Cell survival (% of the initial value): about 70%
[1]; 5% (w/v), 24 h
  Cell survival: complete disappearance of living cells; also recorded: about 20%
[1]; ARPE-19, all incubation times 24-72 h, estimated from graph
  IC50 (50% cell viability inhibition, MTT): about 2.2%
[2]; 0.1% in culture medium
  Osmolarity of excipient dilution: 309 mOsm
[2]; 0.5% in culture medium
  Osmolarity of excipient dilution: 317 mOsm
[2]; 1% in culture medium
  Osmolarity of excipient dilution: 325 mOsm
[2]; 5% in culture medium
  Osmolarity of excipient dilution: 375 mOsm
[2]; 10% in culture medium
  Osmolarity of excipient dilution: 459 mOsm
[2]; 20% in culture medium
  Osmolarity of excipient dilution: 635 mOsm
[3]
  Morphology limit concentration (%): 2.6-3%
[4]; 0.1% in culture medium
  pH of excipient dilution: 7.6
[4]; 0.5% in culture medium
  pH of excipient dilution: 7.6
[4]; 1% in culture medium
  pH of excipient dilution: 7.5
[4]; 5% in culture medium
  pH of excipient dilution: 7.5
[4]; 10% in culture medium
  pH of excipient dilution: 7.5
[4]; 20% in culture medium
  pH of excipient dilution: 7.6

Source: US20050250737A1, “Therapeutic ophthalmic compositions containing retinal friendly excipients and related methods” (Allergan, Inc., priority 2003, published 2005)
